This passage reports IC50 results from patent publication US10512634B2, “Benzimidazole derivates useful as inhibitors of mammalian histone deacetylase activity” (KANCERA AB, priority 2015, dated 2019).

In one test the target is HDAC6 (Homo sapiens (Human), UniProt Q9UBN7). Description: HDAC in vitro enzymatic assay (fluorescence). Format: biochemical. To be noted: top concentration 2 μM. How it is done: Biological Tests Method for Measurement of Enzymatic Activity of HDACs Materials & Methods
All Examples were tested in HDAC1, 2, 3, 6 and 8 in vitro enzymatic assays. The assay principle is well known (Hauser et al. 2009, Bradner et al. 2010) and all necessary reagents like enzymes, substrates, developer and reference compounds are commercially available (see e.g. BPS Biosciences http://www.bpsbioscience.com/). A series of dilutions of the compounds were prepared with a top concentration of 200 μM (2 μM for HDAC6). The enzymatic reactions were conducted in a mixture containing assay buffer, bovine serum albumin, HDAC substrate, and a test compound. After enzymatic reaction, developer was added and after an additional incubation time, fluorescence intensity was measured at an excitation wavelength of 360 nm and an emission wavelength of 460 nm. A selection of the Examples were tested in a full HDAC panel containing HDAC1, 2, 3, 4, 5, 6, 7, 8, 9, 10 and 11 in vitro enzymatic assays. The tests were performed as above except that a series of dilutions of the compounds were prepared with a top concentration of 10 μM for all HDACs.

Another test concerns the target HDAC1 (Homo sapiens (Human), UniProt Q13547). Description: HDAC in vitro enzymatic assay (fluorescence). To be noted: read-out: IC50 HDAC1; selectivity profiling; top concentration 200 μM.
The target of another test is HDAC2 (Homo sapiens (Human), UniProt Q92769). Description: HDAC in vitro enzymatic assay (fluorescence). To be noted: read-out: IC50 HDAC2; selectivity profiling; top concentration 200 μM.
Another test has as its target HDAC3 (Homo sapiens (Human), UniProt O15379). Description: HDAC in vitro enzymatic assay (fluorescence). To be noted: read-out: IC50 HDAC3; selectivity profiling; top concentration 200 μM.
The target in another test is HDAC8 (Homo sapiens (Human), UniProt Q9BY41). Description: HDAC in vitro enzymatic assay (fluorescence). To be noted: read-out: IC50 HDAC8; selectivity profiling; top concentration 200 μM.
A further test deals with AMO-1 (plasmacytom). Description: CellTiter-Blue cell viability assay. To be noted: Homo sapiens, AMO1; AMO-1 cells, 72 hours of treatment; read-out: IC50 AMO-1 (cell viability). Type of test: cell-based. How it is done:
(§1) Method for Measurement of Cell Viability
(§2) The CellTiter-Blue® Cell Viability Assay (Promega) provides a homogeneous, fluorometric method for estimating the number of viable cells present in multi-well plates. The assay uses the indicator dye resazurin to measure the metabolic capacity of cells. Viable cells retain the ability to reduce resazurin into resorufin, which is highly fluorescent.
(§3) Stock solutions (10 mM in DMSO) of compounds were serially diluted 1:2 in 11 concentrations. 50 nL/well (10 mM compound stock in DMSO) was acoustically dispensed in 384-well assay plates with an acoustic dispenser (EDC Biosystems ATS-100AV). Final starting concentration in the assay was 20 μM (0.2% DMSO) for test compounds. […] After 72 hours, Celltiter Blue reagent (Promega #G8081) was diluted 1:10 with PBS and then added to wells (5 μL/well). The plates were incubated for 2 hours following addition of reagent. […] Results were calculated as % cell viability compared to background (cells treated with 0.2% DMSO).
For orientation: The colour change of resazurin is a common sign of viable cells or microbes.

Test [1] relates to PBMC (peripheral blood mononuclear cells from healthy donors). Description: CellTiter-Blue cell viability assay. Type of test: cell-based. To be noted: healthy PBMC, 72 hours of treatment; read-out: IC50 healthy PBMC (cell viability). The method, then: as §1, §2, §3
The next test has as its system U266 (multiple myelom). Description: CellTiter-Blue cell viability assay. Format: cell-based. To be noted: Homo sapiens, U-266; U266 cells, 72 hours of treatment; read-out: IC50 U266 (cell viability). The method, then:
as §1, §2, §3

The mark [2] stands for this setting: read-out: IC50 values for inhibition of HDAC6.
Setting [3] is: selectivity profiling, read-out: IC50 HDAC6.

Each structure is given as a SMILES string. Where a name gives a salt, the structure may show the parent alone. Read-outs that look alike come from different tables or passages of the source. Where only a bound is given, the exact number is not on record here.

Sequence of HDAC1 (Q13547 whole entry): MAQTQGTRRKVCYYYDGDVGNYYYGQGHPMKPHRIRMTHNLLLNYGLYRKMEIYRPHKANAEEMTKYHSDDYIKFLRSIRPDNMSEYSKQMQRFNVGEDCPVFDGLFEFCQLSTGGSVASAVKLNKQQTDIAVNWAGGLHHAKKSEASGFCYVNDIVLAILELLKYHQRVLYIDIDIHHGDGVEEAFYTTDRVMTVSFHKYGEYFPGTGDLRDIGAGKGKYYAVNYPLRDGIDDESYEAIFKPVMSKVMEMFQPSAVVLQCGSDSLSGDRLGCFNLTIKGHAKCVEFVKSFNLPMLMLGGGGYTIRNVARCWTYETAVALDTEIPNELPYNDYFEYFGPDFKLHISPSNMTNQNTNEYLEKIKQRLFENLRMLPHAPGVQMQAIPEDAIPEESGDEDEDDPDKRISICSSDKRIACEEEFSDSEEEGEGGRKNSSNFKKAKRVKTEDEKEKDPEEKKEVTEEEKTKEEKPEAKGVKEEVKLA
Sequence of HDAC2 (Q92769 whole entry): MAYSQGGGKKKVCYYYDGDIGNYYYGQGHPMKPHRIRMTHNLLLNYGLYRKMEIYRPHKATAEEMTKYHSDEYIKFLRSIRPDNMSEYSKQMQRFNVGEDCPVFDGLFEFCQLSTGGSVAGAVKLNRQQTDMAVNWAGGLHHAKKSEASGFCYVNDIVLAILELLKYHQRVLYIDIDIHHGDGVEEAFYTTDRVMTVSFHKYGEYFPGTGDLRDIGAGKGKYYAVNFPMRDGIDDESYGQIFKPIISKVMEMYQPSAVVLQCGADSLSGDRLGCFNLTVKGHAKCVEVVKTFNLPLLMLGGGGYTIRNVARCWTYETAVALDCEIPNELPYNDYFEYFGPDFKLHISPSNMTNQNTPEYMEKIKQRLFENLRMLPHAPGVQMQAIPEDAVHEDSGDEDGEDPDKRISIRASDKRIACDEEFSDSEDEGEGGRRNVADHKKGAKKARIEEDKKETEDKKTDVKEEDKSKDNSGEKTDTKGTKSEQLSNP
Sequence of HDAC8 (Q9BY41 whole entry): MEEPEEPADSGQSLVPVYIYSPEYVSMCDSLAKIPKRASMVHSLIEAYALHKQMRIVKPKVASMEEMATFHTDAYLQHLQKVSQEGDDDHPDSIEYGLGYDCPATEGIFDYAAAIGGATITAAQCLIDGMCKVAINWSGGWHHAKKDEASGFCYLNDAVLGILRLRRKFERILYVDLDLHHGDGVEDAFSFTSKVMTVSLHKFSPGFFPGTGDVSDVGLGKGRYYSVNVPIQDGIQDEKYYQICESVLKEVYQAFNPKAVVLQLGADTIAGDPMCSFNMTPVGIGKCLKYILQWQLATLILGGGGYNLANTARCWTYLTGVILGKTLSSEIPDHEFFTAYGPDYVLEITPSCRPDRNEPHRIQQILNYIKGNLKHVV
Sequence of HDAC3 (O15379 whole entry): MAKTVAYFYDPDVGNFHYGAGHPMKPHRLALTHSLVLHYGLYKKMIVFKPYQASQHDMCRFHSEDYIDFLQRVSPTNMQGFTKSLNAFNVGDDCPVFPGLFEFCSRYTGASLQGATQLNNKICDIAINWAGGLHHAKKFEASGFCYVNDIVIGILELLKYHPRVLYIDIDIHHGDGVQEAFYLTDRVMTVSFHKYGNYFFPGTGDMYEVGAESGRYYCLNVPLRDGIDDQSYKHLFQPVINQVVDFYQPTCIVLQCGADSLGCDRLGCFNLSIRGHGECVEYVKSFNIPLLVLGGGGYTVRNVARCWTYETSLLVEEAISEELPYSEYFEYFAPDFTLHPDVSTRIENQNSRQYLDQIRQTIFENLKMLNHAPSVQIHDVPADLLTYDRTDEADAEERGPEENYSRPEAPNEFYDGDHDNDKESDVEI
Sequence of HDAC3 (Q9Y618 395-489 partner): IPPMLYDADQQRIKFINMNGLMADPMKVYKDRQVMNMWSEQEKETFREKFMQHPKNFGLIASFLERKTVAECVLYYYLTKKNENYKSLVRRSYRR

In the case of `O=C(NO)c1ccc2nc(-c3ccc4c(c3)OCCO4)[nH]c2c1` [Example 11, 2-(2,3-dihydro-1,4-benzodioxin-6-yl)-N-hydroxy-1H-benzimidazole-6-carboxamide], on HDAC6 (setting [2]), the half-inhibitory concentration (IC50) came to 110 nM.
The same measure, in the same setting: as for `O=C(NO)c1ccc2nc(-c3ccnc4ccccc34)[nH]c2c1` [Example 66, N-hydroxy-2-quinolin-4-yl-1H-benzimidazole-6-carboxamide trifluoroacetate], the figure is 14 nM; as for `C#Cc1ccc(-c2nc3ccc(C(=O)NO)cc3[nH]2)cc1` [Example 80, 2-(4-ethynylphenyl)-N-hydroxy-1H-benzimidazole-6-carboxamide], 19 nM; as for `COc1cccc(-c2nc3ccc(C(=O)NO)cc3[nH]2)c1O` [Example 85, N-hydroxy-2-(2-hydroxy-3-methoxyphenyl)-1H-benzimidazole-6-carboxamide], 13 nM.
As to `O=C(NO)c1ccc2nc(-c3ccc4c(c3)CCO4)[nH]c2c1` [Example 96, 2-(2,3-dihydro-1-benzofuran-5-yl)-N-hydroxy-1H-benzimidazole-6-carboxamide], the half-inhibitory concentration (IC50) was 5.2 nM on HDAC6 (setting [3]); 5.2 nM at HDAC6 (setting [2]); 5000 nM at HDAC1; 58000 nM on HDAC2; 1300 nM on HDAC3; 220 nM at HDAC8.
For `CC(C)Oc1ccc(-c2nc3ccc(C(=O)NO)cc3[nH]2)cc1` [Example 97, N-hydroxy-2-[4-(1-methylethoxy)phenyl]-1H-benzimidazole-6-carboxamide], the half-inhibitory concentration (IC50) on HDAC6 (setting [3]) came out at 12 nM; at HDAC6 (setting [2]), 12 nM; on HDAC1 it was 5700 nM; at HDAC2, 33000 nM; on HDAC3, 2400 nM; on HDAC8, 260 nM.
As to `O=C(NO)c1ccc2nc(-c3cccs3)[nH]c2c1` [Example 98, N-hydroxy-2-thiophen-2-yl-1H-benzimidazole-6-carboxamide], the IC50 stood at 7 nM on HDAC6 (setting [3]); 7 nM at HDAC6 (setting [2]); 4400 nM at HDAC1; 24000 nM at HDAC2; 1900 nM on HDAC3; 290 nM on HDAC8.
Consider `CCc1ccc(-c2nc3ccc(C(=O)NO)cc3[nH]2)cc1` [Example 109, 2-(4-ethylphenyl)-N-hydroxy-1H-benzimidazole-6-carboxamide], for which the concentration for half-maximal inhibition (IC50) stood at 46 nM at HDAC6 (setting [3]); 46 nM on HDAC6 (setting [2]); 6500 nM on HDAC1; 165000 nM on HDAC2; 2200 nM on HDAC3; 1200 nM at HDAC8.
On to `Cn1c(-c2nc3ccc(C(=O)NO)cc3[nH]2)cc2ccccc21` [Example 112, N-hydroxy-2-(1-methyl-1H-indol-2-yl)-1H-benzimidazole-6-carboxamide], for which the IC50 on HDAC6 (setting [2]) was 15 nM.
On the same count and under the same terms, next, `COc1ccc(Oc2cccc(-c3nc4ccc(C(=O)NO)cc4[nH]3)c2)cc1` [Example 113, N-hydroxy-2-[3-(4-methoxyphenoxy)phenyl]-1H-benzimidazole-6-carboxamide]: 6.6 nM.
In the case of `O=C(NO)c1ccc2nc(-c3ccccc3-c3ccccc3)[nH]c2c1` [Example 119, 2-biphenyl-2-yl-N-hydroxy-1H-benzimidazole-6-carboxamide], the IC50 at HDAC6 (setting [3]) worked out at 14 nM; at HDAC6 (setting [2]), 14 nM; at HDAC1, 4000 nM; at HDAC2, 29000 nM; on HDAC3, 2800 nM; at HDAC8, 710 nM.
On to `CCN(CC)CCOc1ccc(-c2nc3ccc(C(=O)NO)cc3[nH]2)cc1` [Example 125, 2-{4-[2-(diethylamino)ethoxy]phenyl}-N-hydroxy-1H-benzimidazole-6-carboxamide], for which the IC50 at HDAC6 (setting [2]) turned out to be 14 nM.
Regarding `O=C(NO)c1ccc2nc(-c3cccc(OCCOc4ccccc4)c3)[nH]c2c1` [Example 134, N-hydroxy-2-[3-(2-phenoxyethoxy)phenyl]-1H-benzimidazole-6-carboxamide], at HDAC6 (setting [2]), the IC50 was determined as 18 nM.
Take `O=C(NO)c1ccc2nc(-c3ccc(-c4ccccc4F)cc3)[nH]c2c1` [Example 167, 2-(2′-fluorobiphenyl-4-yl)-N-hydroxy-1H-benzimidazole-6-carboxamide]: the IC50 on HDAC6 (setting [2]) is 19 nM; in the test on AMO-1 (plasmacytom) it was 140 nM; in test [1], > 20000 nM; with U266 (multiple myelom), 160 nM.
For `COc1ccc(-c2ccc(-c3nc4ccc(C(=O)NO)cc4[nH]3)o2)cc1OC` [Example 174, 2-[5-(3,4-dimethoxyphenyl)furan-2-yl]-N-hydroxy-1H-benzimidazole-6-carboxamide], the IC50 at HDAC6 (setting [2]) amounted to 4.7 nM.
The same measure, in the same setting: as for `O=C(NO)c1ccc2nc(-c3ccc(-c4ccccc4F)s3)[nH]c2c1` [Example 176, 2-[5-(2-fluorophenyl)thiophen-2-yl]-N-hydroxy-1H-benzimidazole-6-carboxamide], the figure is 2.9 nM; as for `O=C(NO)c1ccc2nc(-c3ccc(-c4ccccc4)s3)[nH]c2c1` [Example 179, N-hydroxy-2-(5-phenylthiophen-2-yl)-1H-benzimidazole-6-carboxamide], 3.1 nM.
Take `O=C(NO)c1ccc2nc(-c3ccc(-c4ccccc4)c(F)c3)[nH]c2c1` [Example 180, 2-(2-fluorobiphenyl-4-yl)-N-hydroxy-1H-benzimidazole-6-carboxamide]: the IC50 in the test with AMO-1 (plasmacytom) was 420 nM; in test [1] it was > 20000 nM; in the test with U266 (multiple myelom) it was 560 nM.
Regarding `O=C(NO)c1ccc2nc(-c3ccc(-c4cccc(CN5CCCCC5)c4)cc3)[nH]c2c1` [Example 186, N-hydroxy-2-[3′-(piperidin-1-ylmethyl)biphenyl-4-yl]-1H-benzimidazole-6-carboxamide trifluoroacetate], the IC50 on HDAC6 (setting [2]) stood at 4.1 nM.
The same measure, in the same setting: next, `COCCCNCc1ccc(-c2ccc(-c3nc4ccc(C(=O)NO)cc4[nH]3)cc2)cc1` [Example 191, N-hydroxy-2-(4′-{[(3-methoxypropyl)amino]methyl}biphenyl-4-yl)-1H-benzimidazole-6-carboxamide trifluoroacetate]: 18 nM; `O=C(NO)c1ccc2nc(-c3ccc(-c4ccc(/C=N/O)cc4)cc3)[nH]c2c1` [Example 193, N-hydroxy-2-{4′-[(E)-(hydroxyimino)methyl]biphenyl-4-yl}-1H-benzimidazole-6-carboxamide]: 11 nM.
Still for that read-out and setting: next, `CN(C)C(=O)c1cccc(-c2ccc(-c3nc4ccc(C(=O)NO)cc4[nH]3)cc2)c1` [Example 195, 2-[3′-(dimethylcarbamoyl)biphenyl-4-yl]-N-hydroxy-1H-benzimidazole-6-carboxamide]: 24 nM; `O=C(NO)c1ccc2nc(-c3ccc(-c4ccc(CN5CCCC5)cc4)cc3)[nH]c2c1` [Example 197, N-hydroxy-2-[4′-(pyrrolidin-1-ylmethyl)biphenyl-4-yl]-1H-benzimidazole-6-carboxamide trifluoroacetate]: 3.6 nM.
Consider `C[C@@H]1CN(Cc2ccc(-c3ccc(-c4nc5ccc(C(=O)NO)cc5[nH]4)cc3)cc2)C[C@H](C)O1` [Example 201, 2-(4′-{cis)-2,6-dimethylmorpholin-4-yl]methyl}biphenyl-4-yl)-N-hydroxy-1H-benzimidazole-6-carboxamide trifluoroacetate], for which the half-maximal inhibitory concentration (IC50) at HDAC6 (setting [2]) is 13 nM.
The same measure, in the same setting: next, `CS(=O)(=O)Nc1ccc(-c2ccc(-c3nc4ccc(C(=O)NO)cc4[nH]3)cc2)cc1` [Example 204, N-hydroxy-2-{4′-[(methylsulfonyl)amino]biphenyl-4-yl}-1H-benzimidazole-6-carboxamide]: 7.2 nM.

Usually IC50 stands for the point on the concentration scale where inhibition reaches its midpoint.
